Results as given in US12606561B2, “Substituted pyrazolo[1,5-a][1,3,5]triazines as CDK inhibitors” (QURIENT CO., LTD., priority 2018, dated 2026).
pIC50: −log10 of the molar value. Like-named read-outs stand apart in the source and are kept apart here.

Key:
CDK1/Cyclin B = biological target: T1, CDK1/Cyclin B (Homo sapiens, UniProt P06493); assay: Enzymatic assay for CDK1 (LANCE Ultra kinase assay, FRET based); format: biochemical
T1 construct: purchased Invitrogen PR4768C
Method in brief: (§1)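 FRET read-out: Eu-labeled anti-phospho-antibody binding a phosphorylated ULight peptide. Purified CDK–cyclin complex, ATP at Km.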

H460 = assay: Cellular H460 viability assay (CellTiter-Glo, 72 hours); format: cell-based; details: Homo sapiens, NCI-H460; H460 cells
Procedure: All cell lines were routinely tested for mycoplasma.
To effect of the CDK7 inhibitor to inhibit the growth of target cancer cells, viability assay were conducted a 72 hour time period. Briefly, the candidate cell line was plated in 96 well plate at the following density of cells respectively. 1×10^4 cells/well for MV4-11, 5×10^3 for H460 and OVCAR-3, and 1×10^3 for A2780. […] DMSO solvent without compound served as a control and final DMSO concentration lest than 0.1%. After 72 hours of incubation at 37° C., 5% CO2 incubator, cells were analyzed for the viability using the CellTiter-Glo Luminescent Cell Viability Assay (Promega, Cat #G7570). All viability assays were performed in duplicate and Luminescence was read using an Envision (Perkin Elmer, USA). Data was analyzed using XLfit software.

CDK2/Cyclin A = biological target: T2, CDK2/Cyclin A (Homo sapiens, UniProt P24941); assay: Enzymatic assay for CDK2 (LANCE Ultra kinase assay, FRET based); format: biochemical; details: ATP at Km
T2 construct: purchased Invitrogen PV6290
Method in brief: (§2)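 Compounds tested as 8 doses in 4-fold steps against CDK2/Cyclin A ([…]) or CDK5/p25 ([…]), with ATP at its Km and 68 nM ULight-MBP substrate. After 60 min at 23° C., EDTA plus Eu-labelled anti-phospho-MBP added; TR-FRET (615/665 nm) read after another 60 min.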

CDK5/p25 = biological target: T3, CDK5/p25 (Homo sapiens, UniProt Q00535); assay: Enzymatic assay for CDK5 (LANCE Ultra kinase assay, FRET based); format: biochemical; details: ATP at Km
T3 construct: purchased Invitrogen PR8543B
T3 sequence (Q00535 whole entry): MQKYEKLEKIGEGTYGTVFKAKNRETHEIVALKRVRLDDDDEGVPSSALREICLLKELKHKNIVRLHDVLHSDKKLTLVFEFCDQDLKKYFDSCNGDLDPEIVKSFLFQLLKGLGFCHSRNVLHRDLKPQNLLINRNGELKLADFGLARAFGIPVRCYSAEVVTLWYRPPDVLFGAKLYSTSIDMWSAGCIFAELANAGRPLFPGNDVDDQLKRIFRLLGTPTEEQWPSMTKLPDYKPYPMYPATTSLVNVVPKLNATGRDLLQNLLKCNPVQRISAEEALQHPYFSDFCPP
T3 sequence (Q15078 99-307 partner limits assumed): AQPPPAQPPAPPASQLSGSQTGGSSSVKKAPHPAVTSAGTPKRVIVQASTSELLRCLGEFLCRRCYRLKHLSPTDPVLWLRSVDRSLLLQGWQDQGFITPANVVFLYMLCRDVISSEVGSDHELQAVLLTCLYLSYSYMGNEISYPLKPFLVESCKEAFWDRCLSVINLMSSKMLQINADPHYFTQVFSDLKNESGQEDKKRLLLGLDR
Method in brief: as §2

CDK7/Cyclin H/MNAT1 = biological target: T4, CDK7/Cyclin H/MNAT1 (Homo sapiens, UniProt P50613); assay: Enzymatic assay for CDK7 (LANCE Ultra kinase assay, FRET based); format: biochemical; details: for pIC50: ATP at Km
T4 construct: purchased Invitrogen PR6749B
T4 sequence (P50613 whole entry): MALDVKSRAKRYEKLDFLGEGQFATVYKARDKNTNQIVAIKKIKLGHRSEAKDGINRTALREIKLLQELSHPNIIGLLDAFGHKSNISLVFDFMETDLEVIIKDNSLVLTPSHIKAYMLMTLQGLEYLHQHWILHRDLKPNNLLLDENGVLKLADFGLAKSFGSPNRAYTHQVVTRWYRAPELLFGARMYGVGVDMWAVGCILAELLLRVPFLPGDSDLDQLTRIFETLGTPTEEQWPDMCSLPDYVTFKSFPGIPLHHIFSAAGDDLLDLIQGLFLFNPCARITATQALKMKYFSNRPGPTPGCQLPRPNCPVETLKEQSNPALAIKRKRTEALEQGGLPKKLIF
T4 sequence (P51946 whole entry partner): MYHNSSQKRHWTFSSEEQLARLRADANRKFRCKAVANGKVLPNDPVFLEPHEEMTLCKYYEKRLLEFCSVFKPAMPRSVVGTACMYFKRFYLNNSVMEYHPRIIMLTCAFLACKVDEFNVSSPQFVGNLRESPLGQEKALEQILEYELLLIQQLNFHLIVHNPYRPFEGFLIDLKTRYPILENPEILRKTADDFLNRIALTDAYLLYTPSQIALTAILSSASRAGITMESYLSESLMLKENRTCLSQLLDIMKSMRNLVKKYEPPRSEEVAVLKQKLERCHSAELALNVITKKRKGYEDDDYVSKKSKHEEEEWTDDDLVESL
T4 sequence (P51948 whole entry partner): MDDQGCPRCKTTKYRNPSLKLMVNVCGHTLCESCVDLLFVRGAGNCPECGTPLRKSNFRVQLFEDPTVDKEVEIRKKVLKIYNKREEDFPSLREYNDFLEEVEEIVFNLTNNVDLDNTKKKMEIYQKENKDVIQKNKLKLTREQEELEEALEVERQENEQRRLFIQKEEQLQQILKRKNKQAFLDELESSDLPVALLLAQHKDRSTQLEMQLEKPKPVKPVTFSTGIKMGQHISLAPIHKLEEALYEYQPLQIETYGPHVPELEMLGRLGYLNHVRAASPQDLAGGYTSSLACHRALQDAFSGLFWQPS
Method in brief: as §1

A2780 = A2780 viability assay (CellTiter-Glo, 72 hours); format: cell-based; details: Homo sapiens; A2780 cells
Method in brief: (§3)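 CellTiter-Glo luminescence read-out after 72 h compound exposure at 37° C, 5% CO2, duplicates. Seeding densities: MV4-11 1×10^4 cells/well, OVCAR-3 5×10^3, A2780 1×10^3. Dose range 0.0015 uM to 10 uM, added 24 h post-plating; DMSO control, final <0.1%.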

OVCAR-3 = OVCAR-3 viability assay (CellTiter-Glo, 72 hours); format: cell-based; details: Homo sapiens; OVCAR-3 cells
Method in brief: as §3

MV4-11 = assay: Cellular MV4-11 viability assay (CellTiter-Glo, 72 hours); format: cell-based; details: Homo sapiens; MV4-11 cells
Method in brief: as §3

[1] = ATP at Km, read-out: CDK1 enzymatic activity IC50

T1 sequence (P06493 whole entry): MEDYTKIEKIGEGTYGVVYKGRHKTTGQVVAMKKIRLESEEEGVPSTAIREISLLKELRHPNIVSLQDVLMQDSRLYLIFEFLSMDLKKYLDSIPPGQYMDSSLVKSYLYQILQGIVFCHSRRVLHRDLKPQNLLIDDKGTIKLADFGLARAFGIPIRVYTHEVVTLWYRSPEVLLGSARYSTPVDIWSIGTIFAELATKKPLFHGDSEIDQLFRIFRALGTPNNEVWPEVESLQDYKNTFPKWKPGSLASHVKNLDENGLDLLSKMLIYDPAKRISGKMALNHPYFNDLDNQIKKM
T1 sequence (P14635 whole entry partner): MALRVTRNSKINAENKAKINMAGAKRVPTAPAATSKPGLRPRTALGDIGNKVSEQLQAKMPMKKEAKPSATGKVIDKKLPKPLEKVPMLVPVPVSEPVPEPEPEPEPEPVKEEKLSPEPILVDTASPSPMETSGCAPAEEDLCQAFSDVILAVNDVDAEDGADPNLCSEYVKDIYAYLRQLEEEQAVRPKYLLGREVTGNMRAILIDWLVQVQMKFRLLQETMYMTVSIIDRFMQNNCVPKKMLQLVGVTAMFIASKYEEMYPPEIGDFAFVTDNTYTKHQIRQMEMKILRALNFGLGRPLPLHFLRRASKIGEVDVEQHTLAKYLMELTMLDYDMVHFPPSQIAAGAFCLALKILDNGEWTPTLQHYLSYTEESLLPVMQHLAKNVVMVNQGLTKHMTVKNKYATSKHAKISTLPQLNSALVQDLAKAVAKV

Row | Compound | pIC50 (CDK1/Cyclin B) | pIC50 (H460) | pIC50 (CDK2/Cyclin A) | pIC50 (CDK5/p25) | pIC50 (CDK7/Cyclin H/MNAT1) | CDK1/CDK7: Selectivity of CDK7 inhibition over CDK1 inhibition (CDK7/Cyclin H/MNAT1) | CDK2/CDK7: Selectivity of CDK7 inhibition over CDK2 inhibition (CDK7/Cyclin H/MNAT1) | CDK5/CDK7: Selectivity of CDK7 inhibition over CDK5 inhibition (CDK7/Cyclin H/MNAT1) | pIC50 (CDK1/Cyclin B; [1]) | pIC50 (A2780) | pIC50 (OVCAR-3) | pIC50 (MV4-11)
1 | CC(C)c1cnn2c(NCc3cccc(NC(=O)c4cccc(NC(=O)/C=C/CN(C)C)c4)c3)nc(N3CCC(N)CC3)nc12 [Compound 1] | < 6.00 | 5.00 to 6.00 | 6.00 to 7.00 | 6.00 to 7.00 | > 7.00 | B (B indicates 50 < [fold] ≤ 500) | B (B indicates 50 < [fold] ≤ 500) | C (C indicates [fold] ≤ 50) |  |  |  | 
2 | CC(C)c1cnn2c(NCc3ccccc3NC(=O)c3cccc(NC(=O)/C=C/CN(C)C)c3)nc(N3CCC(N)CC3)nc12 [Compound 8] |  | > 6.00 | < 6.00 | 6.00 to 7.00 | > 7.00 | A (A indicates [fold] > 500) | B (B indicates 50 < [fold] ≤ 500) | B (B indicates 50 < [fold] ≤ 500) | < 6.00 |  |  | 
3 | CC(C)c1cnn2c(NCc3ccccc3-c3nccc4cc(NC(=O)/C=C/CN(C)C)ccc34)nc(NC[C@H]3CCNC[C@@H]3O)nc12 [Compound 26] |  | > 6.00 | < 6.00 | < 6.00 | > 7.00 | A (A indicates [fold] > 500) | A (A indicates [fold] > 500) | A (A indicates [fold] > 500) | < 6.00 | > 6.00 | > 6.00 | > 6.00
4 | CC(C)c1cnn2c(NCc3cccc(NC4CCCN(C(=O)/C=C/CN(C)C)CC4)c3)nc(N3CCC(N)CC3)nc12 (racemic) [Compound 21] |  | 5.00 to 6.00 | < 6.00 | 6.00 to 7.00 | > 7.00 | A (A indicates [fold] > 500) | B (B indicates 50 < [fold] ≤ 500) | B (B indicates 50 < [fold] ≤ 500) | < 6.00 |  |  | 
5 | C=CC(=O)Nc1cccc(Oc2cccc(CNc3nc(N4CCC(N(C)C)CC4)nc4c(C(C)C)cnn34)c2)c1 [Compound 14] |  | > 6.00 | < 6.00 | 6.00 to 7.00 | > 7.00 | A (A indicates [fold] > 500) | B (B indicates 50 < [fold] ≤ 500) | B (B indicates 50 < [fold] ≤ 500) | < 6.00 |  |  | 
6 | CC(C)c1cnn2c(NCc3cccc(-c4cc5cc(NC(=O)/C=C/CN(C)C)ccc5[nH]4)c3)nc(N3CCC(N)CC3)nc12 [Compound 23] |  | 5.00 to 6.00 | < 6.00 | 6.00 to 7.00 | > 7.00 | B (B indicates 50 < [fold] ≤ 500) | C (C indicates [fold] ≤ 50) | C (C indicates [fold] ≤ 50) | < 6.00 |  |  | 
7 | CC(C)c1cnn2c(NCc3ccccc3-c3ccc4cccc(NC(=O)/C=C/CN(C)C)c4n3)nc(N3CCC(N)CC3)nc12 [Compound 20] |  | > 6.00 | < 6.00 | 6.00 to 7.00 | > 7.00 | B (B indicates 50 < [fold] ≤ 500) | A (A indicates [fold] > 500) | B (B indicates 50 < [fold] ≤ 500) | < 6.00 | > 6.00 | > 6.00 | > 6.00
8 | CC(C)c1cnn2c(NCc3cccc(OC4CCCN(C(=O)/C=C/CN(C)C)CC4)c3)nc(N3CCC(N)CC3)nc12 (racemic) [Compound 18] |  | > 6.00 | 6.00 to 7.00 | 6.00 to 7.00 | > 7.00 | A (A indicates [fold] > 500) | B (B indicates 50 < [fold] ≤ 500) | B (B indicates 50 < [fold] ≤ 500) | < 6.00 |  |  | 
9 | CC(C)c1cnn2c(NCc3ccccc3-n3cc4cccc(NC(=O)/C=C/CN(C)C)c4n3)nc(N3CCC(N)CC3)nc12 [Compound 16] |  | > 6.00 | 6.00 to 7.00 | 6.00 to 7.00 | > 7.00 | B (B indicates 50 < [fold] ≤ 500) | B (B indicates 50 < [fold] ≤ 500) | C (C indicates [fold] ≤ 50) | < 6.00 |  |  | 
10 | C=CC(=O)Nc1cccc(Oc2ccccc2CNc2nc(N3CCC(N)CC3)nc3c(C(C)C)cnn23)c1 [Compound 7] |  | > 6.00 | < 6.00 | < 6.00 | > 7.00 | A (A indicates [fold] > 500) | A (A indicates [fold] > 500) | B (B indicates 50 < [fold] ≤ 500) | < 6.00 |  |  | 
11 | CC(C)c1cnn2c(NCc3cccc4ccc(NC(=O)/C=C/CN(C)C)nc34)nc(N3CCC(N)CC3)nc12 [Compound 12] |  | > 6.00 | < 6.00 | 6.00 to 7.00 | > 7.00 | A (A indicates [fold] > 500) | B (B indicates 50 < [fold] ≤ 500) | C (C indicates [fold] ≤ 50) | < 6.00 |  |  | 
12 | CC(C)c1cnn2c(NCc3ccccc3-c3nccc4cc(NC(=O)/C=C/CN(C)C)ccc34)nc(N[C@H]3CC[C@H](O)CC3)nc12 [Compound 27] |  | > 6.00 | < 6.00 | < 6.00 | > 7.00 | B (B indicates 50 < [fold] ≤ 500) | B (B indicates 50 < [fold] ≤ 500) | B (B indicates 50 < [fold] ≤ 500) | < 6.00 | > 6.00 | > 6.00 | > 6.00
13 | CC(C)c1cnn2c(NCc3ccccc3OC3CCN(C(=O)/C=C/CN(C)C)CC3)nc(N3CCC(N)CC3)nc12 [Compound 6] |  | > 6.00 | < 6.00 | 6.00 to 7.00 | > 7.00 | A (A indicates [fold] > 500) | A (A indicates [fold] > 500) | C (C indicates [fold] ≤ 50) | < 6.00 |  |  | 
14 | CC(C)c1cnn2c(NCc3ccccc3-n3cc4cc(NC(=O)/C=C/CN(C)C)ccc4n3)nc(N3CCC(N)CC3)nc12 [Compound 24] |  | 5.00 to 6.00 | 6.00 to 7.00 | 6.00 to 7.00 | > 7.00 | B (B indicates 50 < [fold] ≤ 500) | C (C indicates [fold] ≤ 50) | C (C indicates [fold] ≤ 50) | 6.00 to 7.00 |  |  | 
15 | CC(C)c1cnn2c(NCc3ccccc3-c3cc4cc(NC(=O)/C=C/CN(C)C)ccc4[nH]3)nc(N3CCC(N)CC3)nc12 [Compound 19] |  | 5.00 to 6.00 | > 7.00 | > 7.00 | > 7.00 | C (C indicates [fold] ≤ 50) | C (C indicates [fold] ≤ 50) | C (C indicates [fold] ≤ 50) | 6.00 to 7.00 |  |  | 
16 | CC(C)c1cnn2c(NCc3ccccc3-c3cc4cccc(NC(=O)/C=C/CN(C)C)c4[nH]3)nc(N3CCC(N)CC3)nc12 [Compound 25] |  | > 6.00 | 6.00 to 7.00 | > 7.00 | > 7.00 | B (B indicates 50 < [fold] ≤ 500) | C (C indicates [fold] ≤ 50) | C (C indicates [fold] ≤ 50) | 6.00 to 7.00 | > 6.00 | > 6.00 | > 6.00
